Reference: article PMC7248809, “Differential Proliferation Effect of the Newly Synthesized Valine, Tyrosine and Tryptophan–Naphthoquinones in Immortal and Tumorigenic Cervical Cell Lines” (Molecules, 2020)

Experiments:
[1] = system: CaLo cells (HPV-18 positive cervical tumor line); experiment: Cell proliferation (crystal violet), dose-response, CaLo; conditions: 72 h
Protocol: (§1) Immortal and HPV negative cell line HaCaT cells was selected as control for both immortality status and HPV content. […] In order to evaluate the effect of the naphthoquine amino acid derivatives in immortal and tumorigenic cells with HPV positive and negative status we performed a dose-response analysis.
(§2) (A) HaCaT HPV negative cell line cells were treated with 6.25, 12.5, 25, 50, 100 and 200 μM of naphthoquinone amino acid derivatives to assay proliferation rate at 72 h post-treatment. (B) SiHa HPV 16 positive cancer cells were treated with 6.25, 12.5, 25, 50, 100 and 200 μM of naphthoquinone amino acid derivatives to assay proliferation rate at 72 h post-treatment. (C) CaLo HPV 18 positive cancer cells were treated with 6.25, 12.5, 25, 50, 100 and 200 μM of naphthoquinone amino acid derivatives to assay proliferation rate at 72 h post-treatment. […] Cells treated with 0.1% of DMSO were used as Control. * represents statistically significant p < 0.05 value.
(§3) Cell proliferation was quantified by violet crystal dye in 1X phosphate-buffered saline (PBS) (2.7 mM KCl, 1.8 mM KH2PO4, 136 mM NaCl, 10 mM Na2HPO4 pH 7.4). The treated cells were incubated in methanol for 15 min and washed two times with distilled water. Cells were dyed with 0.1% crystal violet and washed three times with water and finally violet crystal was recovered with 10% acid acetic to be analyzed in microplate reader Multiskan GO Spectrophotometer (Thermo Scientific™, Ratastie, Finland).

[2] = system: HaCaT cells (HPV negative non-tumorigenic immortal keratinocytes); experiment: Cell proliferation (crystal violet), dose-response, HaCaT; conditions: Homo sapiens, 72 h
Protocol: as §1, §2, §3

[3] = system: SiHa cells (HPV-16 positive cervical tumor line); experiment: Cell proliferation (crystal violet), dose-response, SiHa; conditions: Homo sapiens, 72 h
Protocol: as §1, §2, §3

[4] = Cyclic voltammetry in 0.1 M TBABF4/DMSO; conditions: for irreversible anodic peak (negative potential region) / irreversible oxidation potential peak (positive potential region): Figure 2, vs Ag/Ag+, 100 mV s^−1; for ipa: anodic peak current density; for ipa / Epa / ipc / Epc / E1/2 / ΔEp / |ipa/ipc|: TBABF4 0.1 M/DMSO, 100 mV/s; for Epa: anodic peak potential of redox reaction; for Epa / Epc: vs Ag/Ag+ pseudo-reference; for ipc: cathodic peak current density; for Epc: cathodic peak potential of redox reaction; for E1/2: half-wave potential, E1/2 = (Epa + Epc)/2, vs Ag/Ag+; for ΔEp: potential peak separation, ΔEp = Epc − Epa; for |ipa/ipc|: ratio of anodic to cathodic peak current (reversibility)
Protocol: Electrochemical studies of naphthoquinone–amino acids (3a–c) and chloride–naphthoquinone–amino acids (4a–c) derivatives were studied by cyclic voltammetry (CV) as previously reported [24]. Briefly, non-aqueous solutions of compounds 3a–c or 4a–c at a concentration of 5 mM were dissolved in dimethyl sulfoxide (DMSO, Sigma–Aldrich, St. Louis, MO, USA) containing 0.1 M tetrabutylammonium tetrafluoroborate (TBABF4, Sigma–Aldrich, St. Louis, MO, USA) as supporting electrolyte. Then, the non-aqueous solutions containing 3a–c or 4a–c were studied by CV in a three-electrode cell using a freshly polished glassy carbon disk electrode (GC) (0.07 cm^2, BASi, West Lafayette, IN, USA) as working electrode and a Pt wire (Alfa-Aesar, Tewksbury, MA, USA) as counter electrode. An Ag/Ag^+ electrode in 0.1 M TBABF4/DMSO was used as pseudo-reference electrode. A potential scan was performed from −2.0 V to 0.75 V vs. Ag/Ag^+ at 100 mV s^−1 in the cathodic direction in order to identify any electron transfer reaction associated to compounds 3a–c or 4a–c using a potentiostat/galvanostat PAR VersaStat 3 (Ametek, Inc. Berwyn, PA, USA). Furthermore, any redox reaction processes of 3a–c or 4a–c were further studied at a scan rate of 10, 25, 50, 100, 200, and 300 mV s^−1. As received TBABF4 and DMSO were used without further purification or drying processes. All the non-aqueous testing solutions were degassed for 30 min with high-purity N2 gas before cyclic voltammetry experiments.

SMILES	IC50 [1]	IC50 [2]	IC50 [3]	irreversible anodic peak (negative potential region) [4]	irreversible oxidation potential peak (positive potential region) [4]	ipa [4]	Epa [4]	ipc [4]	Epc [4]	E1/2 [4]	ΔEp [4]	|ipa/ipc| [4]	melting point
O=C1C(Cl)=C(NC(Cc2c[nH]c3ccccc23)C(=O)O)C(=O)c2ccccc21 (stereo not shown) [Compound 4c, 2-((3-chloro-1,4-dioxo-1,4-dihydronaphthalen-2-yl)amino)-3-(1H-indol-3-yl)propanoic acid]	2.7 µM	~0.331 µM	3.21 µM	−0.36 V	0.46 V	0.23 mA cm^−2	−1.05 V	−0.27 mA cm^−2	−1.17 V	−1.11 V	0.12 V	0.85	–
O=C1C=C(NC(Cc2c[nH]c3ccccc23)C(=O)O)C(=O)c2ccccc21 (stereo not shown) [Compound 3c, 2-((1,4-dioxo-1,4-dihidronaphthalen-2-yl)amino)-3-(1H-indol-3-yl)propanoic acid]	25.2 µM	40.8 µM	28.8 µM	–	0.45 V	0.26 mA cm^−2	−1.19 V	−0.27 mA cm^−2	−1.30 V	−1.24 V	0.11 V	0.95	–
O=C1C=C(NC(Cc2ccc(O)cc2)C(=O)O)C(=O)c2ccccc21 (stereo not shown) [Compound 3a, 2-((1,4-dioxo-1,4-dihydronphthalen-2-yl)amino)-3-(4-hydroxyphenyl) propanoic acid]	81.1 µM	61.6 µM	41 µM	–	higher than 0.5 V	0.28 mA cm^−2	−1.15 V	−0.30 mA cm^−2	−1.27 V	−1.21 V	0.13 V	0.95	214 to 216 °C
O=C1C(Cl)=C(NC(Cc2ccc(O)cc2)C(=O)O)C(=O)c2ccccc21 (stereo not shown) [Compound 4a, 2-((3-chloro-1,4-dioxo-1,4-dihydronaphthalen-2-yl)amino)-3-(4-hydroxyphenyl)propanoic acid]	7.03 µM	9.88 µM	6.83 µM	−0.33 V	higher than 0.5 V	0.22 mA cm^−2	−1.04 V	−0.24 mA cm^−2	−1.15 V	−1.10 V	0.11 V	0.92	–
CC(C)C(NC1=C(Cl)C(=O)c2ccccc2C1=O)C(=O)O (stereo not shown) [Compound 4b, 2-((3-chloro-1,4-dioxo-1,4-dihydronaphthalen-2-yl)amino)-3-methylbutanoic acid]	2.88 µM	7.97 µM	11.3 µM	−0.36 V	0.57 V	0.21 mA cm^−2	−1.05 V	−0.25 mA cm^−2	−1.19 V	−1.12 V	0.14 V	0.83	54 to 56 °C
CC(C)C(NC1=CC(=O)c2ccccc2C1=O)C(=O)O (stereo not shown) [Compound 3b, 2-((1,4-dioxo-1,4-dihydronaphthalen-2-yl)amino)-3-methylbutanoic acid]	57 µM	55.3 µM	47.2 µM	−0.2 V	0.60 V	0.28 mA cm^−2	−1.16 V	−0.30 mA cm^−2	−1.27 V	−1.21 V	0.12 V	0.95	170 to 172 °C
